Source: paper PMC3961306, “Comparison of the Cancer Gene Targeting and Biochemical Selectivities of All Targeted Kinase Inhibitors Approved for Clinical Use” (PLoS ONE, 2014)
Read-outs that look alike come from different tables or passages of the source.

Key:
Assay in all cases: Kinase profiling in a biochemical assay panel (mobility shift assays and ELISA), %-inhibition at 1 μM; selectivity entropy
[1] = biological target: panel of more than 300 wild-type and mutant kinases (313 kinase panel) (Homo sapiens, UniProt P51957)
[2] = biological target: panel of more than 300 wild-type and mutant kinases (313 kinase panel) (Homo sapiens, UniProt Q9H4B4)
[3] = biological target: panel of more than 300 wild-type and mutant kinases (313 kinase panel) (Homo sapiens, UniProt Q02750)
[4] = tested on: panel of more than 300 wild-type and mutant kinases (313 kinase panel)
[5] = biological target: panel of more than 300 wild-type and mutant kinases (313 kinase panel) (Homo sapiens, UniProt Q9Y5S2)
[6] = biological target: panel of more than 300 wild-type and mutant kinases (313 kinase panel) (Homo sapiens, UniProt Q9BYP7)
[7] = biological target: panel of more than 300 wild-type and mutant kinases (313 kinase panel) (Homo sapiens, UniProt Q9HCP0)
[8] = biological target: T1, panel of more than 300 wild-type and mutant kinases (313 kinase panel) (Homo sapiens, UniProt Q16832)
T1 sequence (Q16832 22-855): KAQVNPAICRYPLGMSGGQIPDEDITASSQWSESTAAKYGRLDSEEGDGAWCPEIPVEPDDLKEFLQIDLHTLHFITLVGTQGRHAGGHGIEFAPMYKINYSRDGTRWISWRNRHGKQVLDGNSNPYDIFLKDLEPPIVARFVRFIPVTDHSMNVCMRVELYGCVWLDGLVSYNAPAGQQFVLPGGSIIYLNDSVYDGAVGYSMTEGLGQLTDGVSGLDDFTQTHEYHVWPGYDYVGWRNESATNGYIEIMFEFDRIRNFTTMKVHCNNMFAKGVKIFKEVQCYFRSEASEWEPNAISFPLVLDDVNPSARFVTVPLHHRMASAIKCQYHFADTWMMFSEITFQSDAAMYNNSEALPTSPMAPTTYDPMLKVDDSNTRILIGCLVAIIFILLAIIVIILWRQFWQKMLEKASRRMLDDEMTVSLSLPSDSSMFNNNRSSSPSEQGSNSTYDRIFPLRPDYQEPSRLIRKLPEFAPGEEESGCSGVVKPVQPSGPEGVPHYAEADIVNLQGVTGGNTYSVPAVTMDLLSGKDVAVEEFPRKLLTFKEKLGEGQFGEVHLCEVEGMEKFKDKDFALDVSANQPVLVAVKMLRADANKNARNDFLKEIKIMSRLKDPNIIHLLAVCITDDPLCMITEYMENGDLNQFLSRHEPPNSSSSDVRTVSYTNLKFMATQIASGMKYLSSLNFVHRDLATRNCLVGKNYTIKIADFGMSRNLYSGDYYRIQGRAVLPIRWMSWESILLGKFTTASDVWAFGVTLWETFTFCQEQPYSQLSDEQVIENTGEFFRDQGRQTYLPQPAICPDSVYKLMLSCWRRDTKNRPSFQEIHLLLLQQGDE

[9] = biological target: panel of more than 300 wild-type and mutant kinases (313 kinase panel) (Homo sapiens, UniProt P53779)
[10] = biological target: panel of more than 300 wild-type and mutant kinases (313 kinase panel) (Homo sapiens, UniProt Q9BUB5)
[11] = biological target: panel of more than 300 wild-type and mutant kinases (313 kinase panel) (Homo sapiens, UniProt Q06187); conditions: kinase BTK; 1 μM compound
[12] = biological target: panel of more than 300 wild-type and mutant kinases (313 kinase panel) (Homo sapiens, UniProt Q9UM73, L1196M)
[13] = kinase MAP2K1, compound at 1 μM
[14] = kinase ALK(L1196M), 1 μM compound

Compound	%-inhibition of NEK4 ([1]; kinase NEK4, 1 μM) [%]	%-inhibition of PLK3 ([2]; kinase PLK3, 1 μM) [%]	%-inhibition of MAP2K1 [3, 13] [%]	%-inhibition of NPM1-ALK [4] [%]	%-inhibition of TAK1-TAB1 [4] [%]	%-inhibition of EML4-ALK ([4]; 1 µM) [%]	%-inhibition of LYNb ([4]; 1 µM) [%]	%-inhibition of PKCβ2 ([4]; 1 µM) [%]	%-inhibition of SRM ([4]; 1 µM) [%]	%-inhibition of MRCKβ ([5]; kinase MRCKβ, 1 μM) [%]	%-inhibition of WNK3 ([6]; kinase WNK3, compound at 1 μM) [%]	%-inhibition, CK1γ1 ([7]; kinase CK1γ1, 1 μM compound) [%]	%-inhibition of DDR2 ([8]; kinase DDR2, compound at 1 μM) [%]	%-inhibition of JNK3 ([9]; kinase JNK3, compound at 1 μM) [%]	%-inhibition of MNK1 ([10]; kinase MNK1, 1 μM) [%]	%-inhibition, BTK [11] [%]	also measured
Cc1nc(Nc2ncc(C(=O)Nc3c(C)cccc3Cl)s2)cc(N2CCN(CCO)CC2)n1 [dasatinib]	1.17	10	–	–	–	–	–	–	–	–	–	–	–	–	–	–	–
COc1cc2c(Nc3ccc(Br)cc3F)ncnc2cc1OCC1CCN(C)CC1 [vandetanib]	-6.51	-6	10	28	6	20	91	-2.13	39	-16	-7	-4.74	101	-0.407	91	–	%-inhibition of EGFR(d746-750) ([4]; 1 µM): 100%; %-inhibition of EGFR(d746-750/T790M) ([4]; 1 µM): 85%
CC(C)(C)c1nc(-c2cccc(NS(=O)(=O)c3c(F)cccc3F)c2F)c(-c2ccnc(N)n2)s1 [dabrafenib]	4	–	–	–	–	–	–	–	–	-2.85	1.34	–	100	5.59	20	60	%-inhibition of EGFR(d746-750) ([4]; kinase EGFR(d746-750), compound at 1 μM): -1.84%; %-inhibition of EGFR(d746-750/T790M) ([4]; kinase EGFR(d746-750/T790M), compound at 1 μM): 6.41%; %-inhibition of EML4-ALK ([4]; kinase EML4-ALK, compound at 1 μM): -1.11%; %-inhibition of LYNb ([4]; kinase LYNb, compound at 1 μM): 86%; %-inhibition of NPM1-ALK ([4]; kinase NPM1-ALK, 1 μM): -3%; %-inhibition of PKCβ2 ([4]; kinase PKCβ2, 1 μM): -3%; %-inhibition of SRM ([4]; kinase SRM, 1 μM): 100%; %-inhibition of TAK1-TAB1 ([4]; kinase TAK1-TAB1, 1 μM): 14%
Cc1ccc(Nc2nccc(N(C)c3ccc4c(C)n(C)nc4c3)n2)cc1S(N)(=O)=O [pazopanib]	12	9	2.11	21	-4.34	27	85	4.55	63	1.15	8	-3	96	–	-2	13	%-inhibition, ALK(L1196M) [12, 14]: 25%
C[C@@H](Oc1cc(-c2cnn(C3CCNCC3)c2)cnc1N)c1c(Cl)ccc(F)c1Cl [crizotinib]	4.57	-2.24	0.819	–	5	–	34	-1.6	1.51	-2	-8	-3.52	88	-1.87	0	–	%-inhibition of EGFR(d746-750) ([4]; 1 µM): 2%; %-inhibition of EGFR(d746-750/T790M) ([4]; 1 µM): 8%
O=S(=O)(c1cccc2cnccc12)N1CCCNCC1 [fasudil]	-1.87	-4.66	5.3	–	–	–	–	–	–	–	0.446	-3	0.102	-4	15	1.51	%-inhibition, ALK(L1196M) [12, 14]: -4%
CS(=O)(=O)CCNCc1ccc(-c2ccc3ncnc(Nc4ccc(OCc5cccc(F)c5)c(Cl)c4)c3c2)o1 [lapatinib]	0.649	6	21	-3.28	–	–	7	-6	13	-5	–	-8.54	83	11	11	–	%-inhibition, ALK(L1196M) [12, 14]: -3%
C#Cc1cccc(Nc2ncnc3cc(OCCOC)c(OCCOC)cc23)c1 [erlotinib]	–	–	–	19	5	26	60	6	11	–	–	–	–	–	–	–	%-inhibition of MAP2K1 ([3]; 1 µM): 26%; %-inhibition of NEK4 ([1]; 1 µM): 0.778%; %-inhibition of MRCKβ ([5]; 1 µM): -4%; %-inhibition of WNK3 ([6]; 1 µM): 0.315%; %-inhibition, CK1γ1 ([7]; 1 µM): 2.22%; %-inhibition of DDR2 ([8]; 1 µM): 43%; %-inhibition of PLK3 ([2]; 1 µM): 6%; %-inhibition of JNK3 ([9]; 1 µM): 22%; %-inhibition, ALK(L1196M) ([12]; 1 µM): 18%; %-inhibition of MNK1 ([10]; 1 µM): 74%
COc1cc(Nc2c(C#N)cnc3cc(OCCCN4CCN(C)CC4)c(OC)cc23)c(Cl)cc1Cl [bosutinib]	84	0.877	–	66	83	54	94	22	58	66	13	14	96	–	-4.37	97	%-inhibition of EGFR(d746-750) ([4]; 1 µM): 100%; %-inhibition of EGFR(d746-750/T790M) ([4]; 1 µM): 92%
CCN(CC)CCNC(=O)c1c(C)[nH]c(/C=C2\C(=O)Nc3ccc(F)cc32)c1C [sunitinib]	–	–	89	–	–	–	–	–	–	–	–	–	–	–	–	–	–
Cc1ccc(C(=O)Nc2ccc(CN3CCN(C)CC3)c(C(F)(F)F)c2)cc1C#Cc1cnc2cccnn12 [ponatinib]	98	-11	–	–	–	–	–	–	–	1.18	0.73	-4	101	–	30	95	–
